The source of these data is BindingDB's records for doi:10.1016/j.bioorg.2013.11.005 (Sastra University, 2014).

Assay [1] addresses Ribonuclease pancreatic (Bos taurus) (UniProt P61823).
For a further assay, the target named is Angiogenin (Homo sapiens, UniProt P03950). In words: Inhibition Kinetics with Angiogenin. The note with it: pH 6. On the procedure:
The assay was carried out in oligovinylsulfonic acid free 0.1 M Mes-NaOH buffer (pH 6.0) containing 0.1 M NaCl using substrate concentration from 20 to 122 nM. The concentration of compounds 2, 3, 4 and 5 ranged from 0 to 0.8, 0 to 1.2, 0 to 1.2 and 0 to 2.5 mM, respectively. The angiogenin concentration was 0.36 µM.

Sequence of Ribonuclease pancreatic (Bos taurus) (P61823 whole entry, looked up): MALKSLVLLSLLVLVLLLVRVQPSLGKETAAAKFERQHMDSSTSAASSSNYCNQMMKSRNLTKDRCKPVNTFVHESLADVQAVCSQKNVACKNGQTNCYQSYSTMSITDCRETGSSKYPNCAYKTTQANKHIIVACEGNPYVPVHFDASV
Sequence of Angiogenin (P03950 whole entry): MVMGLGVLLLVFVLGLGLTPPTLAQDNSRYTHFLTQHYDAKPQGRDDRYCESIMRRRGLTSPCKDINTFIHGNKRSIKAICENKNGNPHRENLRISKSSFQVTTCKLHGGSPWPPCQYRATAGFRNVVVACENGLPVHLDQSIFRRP

In general, Ki refers to a dissociation constant, usually derived from enzyme kinetics or from competition with a known ligand. A lower Ki goes with tighter binding. As to `Cc1cn([C@H]2C[C@@H](NC(=O)CC(=O)O)[C@@H](CO)O2)c(=O)[nH]c1=O` [N-[2-Hydroxymethyl-5-(5-methyl-2,4-dioxo-3,4-dihydro-2H-pyrimidin-1-yl)-tetrahydro-furan-3-yl]-malonamic acid (Compound 6)], the Ki in assay [1] stood at 380 µM; on Angiogenin, 1110 µM.
In the case of `Cc1cn([C@H]2C[C@@H](NC(=O)C(=O)O)[C@@H](CO)O2)c(=O)[nH]c1=O` [N-[2-Hydroxymethyl-5-(5-methyl-2,4-dioxo-3,4-dihydro-2H-pyrimidin-1-yl)-tetrahydro-furan-3-yl]-oxalamic acid (Compound 5)], the figures for the Ki (in assay [1]; on Angiogenin) were 132 µM and 775 µM, respectively.
With `Cc1cn([C@H]2C[C@@H](NC(=O)C(N)CO)[C@@H](CO)O2)c(=O)[nH]c1=O` (stereo partly drawn) [Ser-aT (Compound 2)], the Ki worked out at 80 µM in assay [1] and 427 µM on Angiogenin.
For `Cc1cn([C@H]2C[C@@H](NC(=O)C(N)Cc3ccc(O)cc3)[C@@H](CO)O2)c(=O)[nH]c1=O` (stereo partly drawn) [Tyr-aT (Compound 3)], the Ki stood at 451 µM in assay [1] and 1250 µM on Angiogenin.
